Tests used:
bed bugs [1] = assay: Contact toxicity to bed bugs, general findings in the description; assay type: in vivo
bed bugs [2] = assay: Toxicity and durability of toxicity of undiluted DMSO on filter paper in arenas (Example 1A); assay type: in vivo
Description: 0.1 milliliters of Fisher Biotech Molecular Biology Grade 99.7% DMSO (CAS#67-68-5) was applied to each of five 3.5 cm diameter disks of Fisherbrand Qualitative P8 filter paper. […] The arenas were placed in an incubator set to maintain a temperature of 22° C.
At the end of 24 hours, timed from the initial placement of the bed bugs on the filter papers, all of the arenas were removed from the incubator and opened and the bed bugs were examined. […] The bed bugs in the control jar were all still alive.
Without removing the filter paper, the dead bed bugs in the 5 arenas were removed and replaced by the same number (10) of live bed bugs in each arena. The arenas were again placed in the incubator and re-examined 24 hours later. The replacement bed bugs in the 5 arenas were also all dead.
All of the bed bugs in the control jar were all still alive at the end of the last testing interval.

humans and animals = conditions: even when applied directly to a subject's skin; cited from earlier work
bed bugs [3] = assay: Repellency to bed bugs, general finding; assay type: in vivo; conditions: with or without additional insecticidal active ingredient, any DMSO concentration

| Compound | toxicity to bed bugs upon contact (bed bugs [1]; DMSO alone, no insecticidal active ingredient or synergist) | bed bug mortality at end of 24 hours (bed bugs [2]; 0.1 mL 99.7% DMSO on 3.5 cm filter paper, 5 arenas, 10 bed bugs each, 22° C., first 24 hours) | mortality at end of each 24 hour interval, three more replications (bed bugs [2]; same filter paper, replications 3 to 5 at 24 hour intervals) | mortality of replacement bed bugs 24 hours later (bed bugs [2]; same filter paper, second 24 hour interval, 10 live bed bugs per arena) | toxicity in exposure to humans and animals (humans and animals) | repellency effects (bed bugs [3]) | toxicity-enhancing characteristics (bed bugs [1]; as penetration enhancer in insecticidal formulations) |
| --- | --- | --- | --- | --- | --- | --- | --- |
| C[S+](C)[O-] [DMSO, dimethyl sulfoxide] | highly toxic to bed bugs upon contact | All of the bed bugs in all 5 of the jars containing DMSO treated filter paper were dead | all bed bugs found to be dead | also all dead | low toxicity | not accompanied by any repellency effects | – |
| CCCCCCCCCCCCN1CCCCCC1=O [laurocapram, reference compound] | – | – | – | – | – | – | exhibits toxicity-enhancing characteristics similar to DMSO |

Reference: patent US9763443B2, “Control of bed bugs” (Ensystex Inc., priority 2011, dated 2017)
